From PMC6891444, “Immune Checkpoint PD-1/PD-L1 CTLA-4/CD80 are Blocked by Rhus verniciflua Stokes and its Active Compounds” (Molecules, 2019)

Target: T1, PD-1/PD-L1 interaction (Homo sapiens, UniProt Q9NZQ7)
T1 construct: purchased BPS Bioscience #71104 (PD-L1); #71109 (biotinylated PD-1)
Experiment: PD-1/PD-L1 competitive ELISA (Inhibitor Screening Assay Kit)
Type: binding
Details: mean of three independent replicates, read-out: IC50, PD-1/PD-L1 blocking effect
Description: Competitive ELSIA was performed using a PD–1/PD-L1 or CTLA-4/CD80 Inhibitor Screening Assay Kit, according to the supplier’s instructions. An aliquot of 1 μg/mL recombinant human PD-L1 (BPS Bioscience, #71104) or CTLA-4 (BPS Bioscience, #71149) were coated onto a 96-well plate overnight. Plates were washed with phosphate-buffered saline (PBS) containing 0.1% Tween (PBS-T), blocked for 1 h at room temperature with PBS-T containing 2% (w/v) bovine serum albumen, and washed again. After washing, vehicle or test samples were added, and the reaction continued for 1 h. As a positive control, PD-L1 inhibitor C1 or anti-CTLA-4 neutralizing antibody were used. Biotinylated hPD–1 (BPS Bioscience, #71109) or biotinylated hCD80 (BPS Bioscience, #71114) was added to each well, and plates were incubated for 2 h at room temperature. After three washes with PBS-T, diluted streptavidin-horseradish peroxidase (HRP) was added to each well, and plates were reacted for 1 h while shaking at low speed. After the reaction, plates were washed three times with PBS-T, and HRP substrates A and B were added. Relative chemiluminescence was measured on a SpectraMax L Luminometer (Molecular Devices, San Jose, California, USA) and expressed as the relative binding activity. The results were normalized to the relative percentage of the vehicle control group. Half-maximal inhibitory concentration (IC50) was calculated using Prism “log[inhibitor] vs. normalized response” equation. All results are presented as the mean of three independent biological replicates. * p < 0.05, ** p < 0.01, *** p < 0.001, compared with the vehicle control group.

T1 sequence (Q9NZQ7 19-239 limits assumed): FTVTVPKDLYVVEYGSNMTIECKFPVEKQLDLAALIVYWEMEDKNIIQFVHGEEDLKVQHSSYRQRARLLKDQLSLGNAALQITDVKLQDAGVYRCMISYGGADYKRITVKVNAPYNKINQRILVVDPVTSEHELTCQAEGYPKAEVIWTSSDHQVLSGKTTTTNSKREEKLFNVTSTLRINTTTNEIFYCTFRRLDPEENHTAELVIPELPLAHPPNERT

Row | Structure (SMILES) | IC50
1 | O=C1C[C@@H](c2ccc(O)cc2)Oc2cc(O)ccc21 [Compound 13, liquiritigenin] | 11.8 µM
2 | O=C1C[C@@H](c2ccc(O)c(O)c2)Oc2cc(O)cc(O)c21 [Compound 7, eriodictyol] | 0.04 µM

Now from value to compound:

Row | IC50 | Structure (SMILES)
3 | 5.71 µM | O=c1c(O)c(-c2ccc(O)c(O)c2)oc2cc(O)cc(O)c12 [Compound 18, quercetin]
4 | 0.04 µM | O=c1c(O)c(-c2ccc(O)c(O)c2)oc2cc(O)ccc12 [Compound 9, fisetin]

Target: T2, CTLA-4/CD80 interaction (Homo sapiens, UniProt P16410)
T2 construct: purchased BPS Bioscience #71149 (CTLA-4); #71114 (biotinylated CD80)
T2 sequence (P16410 37-162 limits assumed): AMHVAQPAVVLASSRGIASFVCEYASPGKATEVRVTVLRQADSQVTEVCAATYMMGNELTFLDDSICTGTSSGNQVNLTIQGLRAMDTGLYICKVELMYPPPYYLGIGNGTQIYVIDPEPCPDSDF
Experiment: CTLA-4/CD80 competitive ELISA (Inhibitor Screening Assay Kit)
Type: binding
Details: mean of three independent replicates, read-out: IC50, CTLA-4/CD80 blocking effect
Description: Competitive ELSIA was performed using a PD–1/PD-L1 or CTLA-4/CD80 Inhibitor Screening Assay Kit, according to the supplier’s instructions. An aliquot of 1 μg/mL recombinant human PD-L1 (BPS Bioscience, #71104) or CTLA-4 (BPS Bioscience, #71149) were coated onto a 96-well plate overnight. Plates were washed with phosphate-buffered saline (PBS) containing 0.1% Tween (PBS-T), blocked for 1 h at room temperature with PBS-T containing 2% (w/v) bovine serum albumen, and washed again. After washing, vehicle or test samples were added, and the reaction continued for 1 h. As a positive control, PD-L1 inhibitor C1 or anti-CTLA-4 neutralizing antibody were used. Biotinylated hPD–1 (BPS Bioscience, #71109) or biotinylated hCD80 (BPS Bioscience, #71114) was added to each well, and plates were incubated for 2 h at room temperature. After three washes with PBS-T, diluted streptavidin-horseradish peroxidase (HRP) was added to each well, and plates were reacted for 1 h while shaking at low speed. After the reaction, plates were washed three times with PBS-T, and HRP substrates A and B were added. Relative chemiluminescence was measured on a SpectraMax L Luminometer (Molecular Devices, San Jose, California, USA) and expressed as the relative binding activity. The results were normalized to the relative percentage of the vehicle control group. Half-maximal inhibitory concentration (IC50) was calculated using Prism “log[inhibitor] vs. normalized response” equation.

Row | IC50 | Structure (SMILES)
5 | 35.5 µM | O=C1c2c(O)cc(O)cc2OC(c2ccc(O)c(O)c2)C1O (stereo not shown) [Compound 5, taxifolin]
6 | 4.51 µM | O=C(O)c1ccc(O)c(O)c1 [Compound 2, protocatechuic acid]
7 | 10 µM | O=C(O)/C=C/c1ccc(O)c(O)c1 [Compound 19, caffeic acid]
